The assay has as its system L1210 leukemia ip in BDF1 mice, survival T/C. As to the kind of experiment: NCI In Vivo Anticancer Drug Screen. Data for tumor model L1210 Leukemia (intraperitoneal) in B6D2F1 (BDF1) mice. Particulars: endpoint: mean survival time, higher = longer survival. In a few lines:
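Ratio derived from survival: compound-dosed mice over vehicle-dosed mice, all bearing a transplantable tumor.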

Setting [1] is: dose: 2.0 mg/kg/injection, schedule: Q01DX Z (ip), vehicle: carboxymethylcellulose (CMC).
The mark [2] stands for this setting: dose: 4.0 mg/kg/injection, schedule: Q01DX Z (ip), vehicle: carboxymethylcellulose (CMC).
The mark [3] stands for this setting: dose: 62.0 mg/kg/injection, schedule: Q01DX Z (oral), vehicle: carboxymethylcellulose (CMC).
Where [4] appears, read: dose: 125.0 mg/kg/injection, schedule: Q01DX Z (oral), vehicle: carboxymethylcellulose (CMC).
Where [5] appears, read: dose: 250.0 mg/kg/injection, schedule: Q01DX Z (oral), vehicle: carboxymethylcellulose (CMC).
[6] abbreviates: dose: 500.0 mg/kg/injection, schedule: Q01DX Z (oral), vehicle: carboxymethylcellulose (CMC).
[7] abbreviates: dose: 100.0 mg/kg/injection, schedule: Q04DX003 (ip), vehicle: saline with Tween-80.
The mark [8] stands for this setting: dose: 200.0 mg/kg/injection, schedule: Q04DX003 (ip), vehicle: saline with Tween-80.
The mark [9] stands for this setting: dose: 400.0 mg/kg/injection, schedule: Q04DX003 (ip), vehicle: saline with Tween-80.

Where “and” joins values, the source holds several entries; their conditions need not be identical. Identical values can stand only once. Toxic doses and inconclusive results are not listed.

As to `O=C(CCC(=O)Nc1ccc(C2=NCCN2)cc1)Nc1ccc(C2=NCCN2)cc1`, the T/C is, setting by setting: under setting [1], 100 % of control; (dose: 3.0 mg/kg/injection, schedule: Q01DX Z (ip), vehicle: carboxymethylcellulose (CMC)) 105 % of control; under setting [2], 114 % of control; (dose: 6.0 mg/kg/injection, schedule: Q01DX Z (ip), vehicle: carboxymethylcellulose (CMC)) 107 % of control; (dose: 12.0 mg/kg/injection, schedule: Q01DX Z (ip), vehicle: carboxymethylcellulose (CMC)) 173 % of control; (dose: 16.0 mg/kg/injection, schedule: Q01DX Z (ip), vehicle: carboxymethylcellulose (CMC)) 218 % of control and 234 % of control. The T/C is 216 % of control (dose: 24.0 mg/kg/injection, schedule: Q01DX Z (ip), vehicle: carboxymethylcellulose (CMC)); 120 % of control (dose: 38.0 mg/kg/injection, schedule: Q01DX001 (ip), vehicle: carboxymethylcellulose (CMC)); 117 % of control (dose: 38.0 mg/kg/injection, schedule: Q01DX001 (ip), vehicle: other); 120 % of control (dose: 56.0 mg/kg/injection, schedule: Q01DX001 (ip), vehicle: carboxymethylcellulose (CMC)); 119 % of control (dose: 56.0 mg/kg/injection, schedule: Q01DX001 (ip), vehicle: other); 104 % of control under setting [3]. For the same molecule, the T/C (dose: 64.0 mg/kg/injection, schedule: Q01DX Z (ip), vehicle: carboxymethylcellulose (CMC)) was 113 % of control; the T/C under setting [4] is 104 % of control; the T/C (dose: 128.0 mg/kg/injection, schedule: Q01DX001 (ip), vehicle: carboxymethylcellulose (CMC)) was 183 % of control; the T/C under setting [5] was 110 % of control; the T/C under setting [6] is 177 % of control.

Regarding `CCOC(=O)/C(O)=C\c1cc(Cl)nnc1Cl`, the T/C was 100 % of control (dose: 162.5 mg/kg/injection, schedule: Q04DX002 (ip), vehicle: Klucel (hydroxypropylcellulose) (HPC)) and 95 % of control (dose: 325.0 mg/kg/injection, schedule: Q04DX002 (ip), vehicle: Klucel (hydroxypropylcellulose) (HPC)).

For `COc1nc(N/N=C/c2ccccc2O)ccc1[N+](=O)[O-]`, the T/C by setting is: (dose: 100.0 mg/kg/injection, schedule: Q04DX003 (ip), vehicle: Klucel (hydroxypropylcellulose) (HPC)) 93 % of control; (dose: 200.0 mg/kg/injection, schedule: Q04DX003 (ip), vehicle: Klucel (hydroxypropylcellulose) (HPC)) 93 % of control; (dose: 400.0 mg/kg/injection, schedule: Q04DX003 (ip), vehicle: Klucel (hydroxypropylcellulose) (HPC)) 95 % of control.

Regarding `CN(C)S(=O)(=O)c1ccc(NC(=O)OC2CCCCC2)cc1`, the T/C runs as follows: (dose: 100.0 mg/kg/injection, schedule: Q01DX001 (ip), vehicle: saline) 96 % of control; (dose: 200.0 mg/kg/injection, schedule: Q01DX001 (ip), vehicle: saline) 91 % of control; (dose: 400.0 mg/kg/injection, schedule: Q01DX001 (ip), vehicle: saline) 96 % of control.

As to `CC(C(=O)c1ccccc1)S(=O)(=O)O` (stereo unspecified), the T/C reads like this: (dose: 100.0 mg/kg/injection, schedule: Q04DX003 (ip), vehicle: saline) 102 % of control; (dose: 200.0 mg/kg/injection, schedule: Q04DX003 (ip), vehicle: saline) 94 % of control; (dose: 400.0 mg/kg/injection, schedule: Q04DX003 (ip), vehicle: saline) 96 % of control.

`CS(=O)(=O)OCC1(c2ccccc2)CCCCC1`: the T/C was 101 % of control (dose: 100.0 mg/kg/injection, schedule: Q01DX001 (sc), vehicle: olive oil, sesame oil, peanut oil); 103 % of control (dose: 200.0 mg/kg/injection, schedule: Q01DX001 (sc), vehicle: olive oil, sesame oil, peanut oil); 108 % of control (dose: 400.0 mg/kg/injection, schedule: Q01DX001 (sc), vehicle: olive oil, sesame oil, peanut oil).

Turning to `Cc1cccc(Sc2cccc3c2C(C)(O)c2c(Sc4cccc(C)c4)cccc2C3(C)O)c1` (stereo unspecified), the T/C is 96 % of control under setting [7], 95 % of control under setting [8] and 96 % of control under setting [9].

Take `COc1ccc(OC)c(C(=O)CC(O)(C(F)(F)F)C(F)(F)F)c1`: the T/C under setting [7] is 94 % of control, the T/C under setting [8] is 90 % of control and the T/C under setting [9] is 99 % of control.

Take `CNC(=O)c1ccc(NC(=O)Nc2ccc(C3=NCCN3)cc2)cc1NC(=O)Nc1ccc(C2=NCCN2)cc1`: the T/C was 96 % of control under setting [1]; 112 % of control under setting [2]; 209 % of control and 351 % of control (dose: 17.0 mg/kg/injection, schedule: Q01DX Z (ip), vehicle: carboxymethylcellulose (CMC)); 287 % of control (dose: 27.0 mg/kg/injection, schedule: Q01DX Z (ip), vehicle: carboxymethylcellulose (CMC)); 239 % of control and 295 % of control (dose: 34.0 mg/kg/injection, schedule: Q01DX Z (ip), vehicle: carboxymethylcellulose (CMC)); 209 % of control (dose: 51.0 mg/kg/injection, schedule: Q01DX Z (ip), vehicle: carboxymethylcellulose (CMC)). Moreover, the T/C by setting is: under setting [3], 104 % of control; (dose: 68.0 mg/kg/injection, schedule: Q01DX Z (ip), vehicle: carboxymethylcellulose (CMC)) 152 % of control; under setting [4], 105 % of control; under setting [5], 102 % of control; under setting [6], 102 % of control.

Consider `CCN(C(=O)C(F)(F)F)C(C)(C)C(SSSC(c1ccc(Cl)cc1)C(C)(C)N(CC)C(=O)C(F)(F)F)c1ccc(Cl)cc1` (stereo unspecified), for which, where the note is “dose: 100.0 mg/kg/injection, schedule: Q01DX009 (ip), vehicle: other”, the T/C was 94 % of control.

As to `CC1(C(N)=O)CCCC2(C)c3ccccc3CCC12` (stereo unspecified), the T/C runs as follows: under setting [7], 92 % of control; under setting [8], 95 % of control; under setting [9], 94 % of control.

In the case of `NC(=NCc1ccccc1)c1ccc(NC(=O)c2ccc(C(=O)Nc3ccc(C(N)=NCc4ccccc4)cc3)cc2)cc1`, the T/C (dose: 7.0 mg/kg/injection, schedule: Q01DX Z (ip), vehicle: water) was 113 % of control.

For the molecule `NC1C(=O)NC(=O)NC1=O`, the T/C by setting is: (dose: 50.0 mg/kg/injection, schedule: Q01DX009 (ip), vehicle: carboxymethylcellulose (CMC)) 100 % of control; (dose: 100.0 mg/kg/injection, schedule: Q01DX009 (ip), vehicle: carboxymethylcellulose (CMC)) 103 % of control; (dose: 100.0 mg/kg/injection, schedule: Q04DX002 (ip), vehicle: Klucel (hydroxypropylcellulose) (HPC)) 102 % of control; (dose: 200.0 mg/kg/injection, schedule: Q01DX009 (ip), vehicle: carboxymethylcellulose (CMC)) 92 % of control; (dose: 200.0 mg/kg/injection, schedule: Q04DX002 (ip), vehicle: Klucel (hydroxypropylcellulose) (HPC)) 104 % of control.

On to `CCCN(CCC)C(=O)/C(=C\c1ccccc1)NC(=O)c1ccccc1`, for which the T/C (dose: 100.0 mg/kg/injection, schedule: Q01DX001 (ip), vehicle: carboxymethylcellulose (CMC)) was 93 % of control; the T/C (dose: 200.0 mg/kg/injection, schedule: Q01DX001 (ip), vehicle: carboxymethylcellulose (CMC)) is 93 % of control; the T/C (dose: 400.0 mg/kg/injection, schedule: Q01DX001 (ip), vehicle: carboxymethylcellulose (CMC)) was 98 % of control.

(Values after PubChem BioAssay AID248 (DTP/NCI, 2004).)
